# Measurements as given in ChEMBL document CHEMBL1130385, “Synthesis and biological activities of conformationally restricted, tricyclic nonclassical antifolates as inhibitors of dihydrofolate reductases” (J Med Chem, 1997).
# Assays:
# [1] = target: T1, Bifunctional dihydrofolate reductase-thymidylate synthase (Toxoplasma gondii, UniProt Q07422); test: Inhibitory concentration against Toxoplasma gondii Dihydrofolate reductase
# T1 sequence (Q07422 whole entry): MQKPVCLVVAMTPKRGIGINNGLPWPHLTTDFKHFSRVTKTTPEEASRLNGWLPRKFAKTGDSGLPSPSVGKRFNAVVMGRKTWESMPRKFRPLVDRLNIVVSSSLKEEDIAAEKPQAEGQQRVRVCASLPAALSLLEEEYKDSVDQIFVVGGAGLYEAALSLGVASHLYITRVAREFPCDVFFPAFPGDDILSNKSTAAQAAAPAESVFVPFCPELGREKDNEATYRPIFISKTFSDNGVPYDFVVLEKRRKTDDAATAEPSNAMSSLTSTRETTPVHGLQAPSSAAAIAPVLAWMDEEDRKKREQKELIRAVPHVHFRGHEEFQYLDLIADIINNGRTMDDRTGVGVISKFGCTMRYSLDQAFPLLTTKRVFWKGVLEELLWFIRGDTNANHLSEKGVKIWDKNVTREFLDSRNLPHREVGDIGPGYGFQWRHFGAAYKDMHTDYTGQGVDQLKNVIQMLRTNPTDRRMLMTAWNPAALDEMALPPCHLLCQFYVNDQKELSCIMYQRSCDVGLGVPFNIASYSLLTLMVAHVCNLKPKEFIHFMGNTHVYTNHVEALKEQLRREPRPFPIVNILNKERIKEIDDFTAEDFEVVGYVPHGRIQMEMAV
# [2] = target: T2, Dihydrofolate reductase (Rattus norvegicus, UniProt Q920D2)
# T2 sequence (Q920D2 whole entry): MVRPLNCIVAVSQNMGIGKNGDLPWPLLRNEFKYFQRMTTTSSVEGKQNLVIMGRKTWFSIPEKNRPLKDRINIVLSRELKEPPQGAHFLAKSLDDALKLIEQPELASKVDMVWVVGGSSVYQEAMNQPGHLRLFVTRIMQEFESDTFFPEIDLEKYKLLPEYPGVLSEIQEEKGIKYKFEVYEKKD
# Description: Inhibitory concentration against Rat liver Dihydrofolate reductase
# [3] = target: T3, Dihydrofolate reductase (Pneumocystis carinii, UniProt P16184)
# T3 sequence (P16184 whole entry): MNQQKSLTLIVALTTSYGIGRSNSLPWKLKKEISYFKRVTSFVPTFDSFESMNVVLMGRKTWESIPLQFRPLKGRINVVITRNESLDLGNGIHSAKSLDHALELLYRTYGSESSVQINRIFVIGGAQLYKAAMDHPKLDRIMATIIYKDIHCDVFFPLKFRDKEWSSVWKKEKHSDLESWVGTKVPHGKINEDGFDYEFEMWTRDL
# Description: Inhibitory concentration against Pneumocystis carinii Dihydrofolate reductase
SMILES,IC50 [1] [nM],IC50 [2] [nM],IC50 [3] [nM]
COc1cc(N2C=C3C(=O)N=c4nc(N)nc(N)c4=C3CC2)cc(OC)c1OC,1120,240,
COc1cc(N2CCC3c4c(N)nc(N)nc4NCC3C2)cc(OC)c1OC (centres undefined),290,160,
COc1c(Cl)c(-n2ccc3c4c(N)nc(N)nc4nc(=O)c-3c2)c(Cl)c(OC)c1OC,,500,
COc1cc(N2CCc3c(cnc4nc(N)nc(N)c34)C2)cc(OC)c1OC,,> 2700,> 2270
COc1cc(-n2ccc3c4c(N)nc(N)nc4nc(=O)c-3c2)cc(OC)c1OC,520,86,2400
COc1cc(N2C=Cc3c(cnc4nc(N)nc(N)c34)C2)cc(OC)c1OC,760,470,
COc1cc(N2CCc3c(c(=O)[nH]c4nc(N)nc(N)c34)C2)cc(OC)c1OC,,> 5000,> 5000
